Where “and” joins values, the source holds several entries; their conditions need not be identical. Equal values may be shown once. Read-outs that look alike come from different tables or passages of the source.
Tests used:
[1] = tested on: primary human hepatocytes; test: MPCC hepatotoxicity (albumin, urea, morphology); format: cell-based; conditions: 10µM
[2] = tested on: P. berghei liver stage in HepG2-A16-CD81EGFP; set-up: method as in ref [58, 65] (a number printed in a supplementary file, which may have a reference list of its own: not looked up in the article's list); conditions: ref [58, 65], cited from earlier work; for P. berghei Liver stage activity summary: 50uM; for P. berghei Liver stage infection rate rep1 (luciferase) / P. berghei Liver stage infection rate rep2 (luciferase): 50µM
[3] = tested on: NCI60 human tumor cell lines; test: NCI60 5-dose (dose-response) assay; format: cell-based
Source text: Columns IE-KK. NCI: Misra group (data presented first in this paper). NCI60 anti-tumor cell activity. Methods: […] These 60 cell lines, along with others, have been developed at NCI and have been maintained and distributed for research purposes by NCI for over 25 years. The experimental readout provides both inhibition of cell growth and cell kill. The screen was originally designed to prioritize agents for further evaluation. […] This is the same as for the 5-dose assay, described on http://dtp.cancer.gov/branches/btb/ivclsp.html. […] Testing beyond the initial screen: There were 133 compounds that passed threshold to proceed to 5-dose (dose-response) (data are available for the 133 compounds at the DTP public website (dtp.cancer.gov) by searching either the MMV number or NSC number). After examination of the 5-dose data, 10 compounds were selected for repeat testing based generally on potency, differential cell activity or activity on an individual cell lines or cell line panel. A summary of the data for the 10 compounds of interest is in the table below.

[4] = tested on: HIV-1 JR-FL or HIV-1 NL4-3 pseudoviruses; test: HIV-1 pseudovirus infection luciferase; format: cell-based; conditions: Human immunodeficiency virus 1, HXB2 / NL43, read-out: HIV HXB2 % inhibition rep2 in U87 Luc
[5] = target: PfPMT (Plasmodium falciparum, UniProt Q8IDQ9); test: PfPMT gene replacement yeast growth
[6] = tested on: Toxoplasma gondii TS-4; conditions: ref [84]; read-out: Toxoplasma gondi TS4 EC50; cited from earlier work
[7] = tested on: CYP2C9 mRNA; test: MPCC LMA-Luminex CYP2C9 mRNA; format: cell-based, human; conditions: 10µM
[8] = tested on: MAOB mRNA; test: MPCC LMA-Luminex MAOB mRNA; format: cell-based, human; conditions: 10µM
[9] = tested on: CYP2D8 mRNA; test: MPCC LMA-Luminex CYP2D8 mRNA; format: cell-based, human; conditions: 10µM
[10] = tested on: MAOA mRNA; test: MPCC LMA-Luminex MAOA mRNA; format: cell-based, human; conditions: 10µM
[11] = tested on: CYP2D6 mRNA; test: MPCC LMA-Luminex CYP2D6 mRNA; format: cell-based, human; conditions: 10µM
[12] = tested on: CYP1A2 mRNA; test: MPCC LMA-Luminex CYP1A2 mRNA; format: cell-based, human; conditions: 10µM
[13] = tested on: CYP3A4 mRNA; test: MPCC LMA-Luminex CYP3A4 mRNA; format: cell-based, human; conditions: 10µM
[14] = tested on: CYP2C19 mRNA; test: MPCC LMA-Luminex CYP2C19 mRNA; format: cell-based, human; conditions: 10µM
[15] = tested on: Strongyloides stercoralis; test: Strongyloides stercoralis Scynexis; format: cell-based; conditions: 10µM
Experimental: Supplement ppat.1005763.s002.xlsx, sheet "S1 Table Heat Map" | column: Strongyloides stercoralis % dead at 10µM Scynexis

[16] = mean over cell lines of one experiment, listed as 766523/2
[17] = read-out: % Inhibition in PfPMT gene replacement yeast, no added choline
[18] = read-out: % Inhibition in PfPMT gene replacement yeast, with added choline

PfPMT, sequence (Q8IDQ9 whole entry): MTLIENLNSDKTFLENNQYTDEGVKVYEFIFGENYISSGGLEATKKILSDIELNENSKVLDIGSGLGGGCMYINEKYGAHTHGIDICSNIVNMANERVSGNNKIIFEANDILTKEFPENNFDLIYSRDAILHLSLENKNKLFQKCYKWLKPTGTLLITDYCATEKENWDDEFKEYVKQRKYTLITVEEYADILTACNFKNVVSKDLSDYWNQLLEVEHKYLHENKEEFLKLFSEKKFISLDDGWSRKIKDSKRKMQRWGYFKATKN

SMILES | Human hepatocyte Urea synthesis, 1.0 normal [1] | Human hepatocyte albumin synthesis, 1.0 normal [1] | P. berghei Liver stage activity summary [2] | P. berghei Liver stage infection rate rep1 (luciferase) [2] | P. berghei Liver stage infection rate rep2 (luciferase) [2] | inhibition at 5 µM [4] | inhibition at 100 µM [5, 17] | inhibition at 100 µM [5, 18] | Human hepatocyte CYP2C9 mRNA induction, 0.0 normal [7] | Human hepatocyte MAOB mRNA induction, 0.0 normal [8] | Human hepatocyte CYP2D8 mRNA induction, 0.0 normal [9] | Human hepatocyte MAOA mRNA induction, 0.0 normal [10] | Human hepatocyte CYP2D6 mRNA induction, 0.0 normal [11] | Human hepatocyte CYP1A2 mRNA induction, 0.0 normal [12] | Human hepatocyte CYP3A4 mRNA induction, 0.0 normal [13] | Human hepatocyte CYP2C19 mRNA induction, 0.0 normal [14] | further results
CCN1CCN(c2cc(C)c3cc(NC(=O)c4ccc(OC)c(OC)c4)ccc3n2)CC1 [MMV019074] | 0.58 | 0.51 | tox (tox (toxic) if >50% HepG2) | -3.74% | -4% | -69% | 0% | 0% | – | – | – | – | – | – | – | – | Notes (NCI60 5-dose activity pattern) [3]: Specific lines sensitive; MGLI50 = Mean Growth Log I50 ([3]; 5-dose, mean over NCI60 panel): -4.91; _MID Log10GI50 [3, 16]: -4.8 Molar and -5.03 Molar; _MID Log10LC50 [3, 16]: -4.0 Molar and -4.04 Molar; _MID Log10TGI [3, 16]: -4.05 Molar and -4.25 Molar
COc1ccc(C(=O)Nc2ccc3nc(N4CCCCC4)cc(C)c3c2)cc1OC [MMV019758] | 0.66 | 0.58 | tox (tox (toxic) if >50% HepG2) | -4% | -4% | -36% | 0% | 0% | – | – | – | – | – | – | – | – | EC50 [6]: 25.7 µM
COc1cc2cc(C(=O)Nc3ccccc3)c(N)nc2cc1OC [MMV006767] | 1.00 | 0.82 | – | 27% | 61% | 51% | 0% | 0% | -0.09 | -0.22 | -0.10 | 0.23 | -0.21 | -0.09 | 0.0216 | -0.39 | –
CCOC(=O)c1cnc2ccc(OC)cc2c1NCc1ccccc1 [MMV665813] | 0.81 | 0.93 | tox (tox (toxic) if >50% HepG2) | -3.22% | -4% | -1.56% | 0% | 0% | -0.17 | -1.05 | -0.79 | -0.36 | -1.27 | -0.15 | -0.06 | -0.35 | –
CCN(CC)c1cc(C)c2cc(NC(=O)c3cccc(OC)c3)ccc2n1 [MMV000498] | 0.65 | 0.57 | tox (tox (toxic) if >50% HepG2) | -3.74% | -5.7% | 55% | 16% | 0% | – | – | – | – | – | – | – | – | Strongyloides stercoralis % dead [15]: 25%
